{"source": "patent US5668165A", "about": "“Small molecule inhibition of RNA/ligand binding” (Scriptgen Pharmaceuticals, Inc., priority 1995, dated 1997)", "key": {"[1]": {"test_system": "Group I introns", "conditions": "von Ahsen et al. 1992; cited from earlier work"}, "[2]": {"test_system": "cytomegalovirus (CMV)-CAT reporter", "experiment": "CMV-CAT reporter expression", "type": "cell-based", "conditions": "comparable concentrations", "source_text": "First, at all concentrations of antibiotics tested, cellular viability and growth were normal, and total cellular protein synthesis (as monitored by incorporation of [^35 S]methionine into protein) was not inhibited. […] Thus, inhibition of Rev function is not due to interference with CAT gene expression at the transcriptional or posttranscriptional level. The failure to inhibit Tat is particularly relevant, because transcription activation involves an RNA-protein interaction between Tat and trans-acting responsive sequences."}, "[3]": {"test_system": "GST-Sex lethal binding to tra RNA", "experiment": "Sex lethal binding to tra RNA", "design": "species or system Drosophila", "conditions": "100 μM", "source_text": "To determine whether inhibition by 2-DOS aminoglycosides was specific for Rev-RRE interaction, the effect of inhibitory antibiotics on several unrelated sequence-specific RNA- and DNA-binding proteins was examined. Initially, two well-characterized proteins involved in pre-mRNA splicing were examined: the essential splicing factor USAF^65 and the Drosophila splicing regulator Sex lethal.\nIn these binding experiments, Sex lethal protein or the 65 kD subunit of U2AF^65, each purified as fusion protein with gluthatione-S-transferase (GST), were incubated with a ^32 P-labelled RNA containing the well-characterized polypyrimidine tract-3' splice site found in the Drosophila tra gene. The incubations were performed in the absence or presence of 100 μM neomycin B or 100 μM tobramycin."}, "[4]": {"experiment": "in vitro", "type": "cell-based", "conditions": "human; U1 cells, all concentrations (0-2.5 mM); read-out: cellular growth, of the untreated control"}, "[5]": {"test_system": "binding of Rev to the RRE (67-nt RNA probe containing a high affinity Rev-binding site)", "design": "species or system HIV", "conditions": "for ability to inhibit Rev binding (inhibitory at any concentration tested): 67-nt 32P-labeled RNA probe, gel mobility shift", "experimental": "To test whether antibiotics can block binding of Rev to the RRE, a 67-nt ^32 P-labeled RNA probe containing a high affinity Rev-binding site was incubated with purified E. coli derived Rev protein in the presence of various antibiotics. Binding of Rev to the RNA probe was quanitified by an RNA gel mobility shift assay."}, "[6]": {"test_system": "Rev binding to the RRE", "experiment": "Rev competition with neomycin B for binding to the RRE", "design": "species or system HIV", "conditions": "100 μM drug", "experimental": "A prediction of this hypothesis is that inhibition could be overcome by high concentrations of Rev. […] However, as the amount of Rev was increased (i.e., to 10-20 ng), RNA binding was restored. The combined results of the experiments described in Examples 5 and 6 indicate that inhibition by neomycin B of Rev binding to the RRE occurs by a competitive mechanism."}, "[7]": {"molecular_target": "T1, binding of Oct-1 to the HSV ICPO octamer binding site (Homo sapiens, UniProt P14859)", "T1 sequence (P14859 1-743)": "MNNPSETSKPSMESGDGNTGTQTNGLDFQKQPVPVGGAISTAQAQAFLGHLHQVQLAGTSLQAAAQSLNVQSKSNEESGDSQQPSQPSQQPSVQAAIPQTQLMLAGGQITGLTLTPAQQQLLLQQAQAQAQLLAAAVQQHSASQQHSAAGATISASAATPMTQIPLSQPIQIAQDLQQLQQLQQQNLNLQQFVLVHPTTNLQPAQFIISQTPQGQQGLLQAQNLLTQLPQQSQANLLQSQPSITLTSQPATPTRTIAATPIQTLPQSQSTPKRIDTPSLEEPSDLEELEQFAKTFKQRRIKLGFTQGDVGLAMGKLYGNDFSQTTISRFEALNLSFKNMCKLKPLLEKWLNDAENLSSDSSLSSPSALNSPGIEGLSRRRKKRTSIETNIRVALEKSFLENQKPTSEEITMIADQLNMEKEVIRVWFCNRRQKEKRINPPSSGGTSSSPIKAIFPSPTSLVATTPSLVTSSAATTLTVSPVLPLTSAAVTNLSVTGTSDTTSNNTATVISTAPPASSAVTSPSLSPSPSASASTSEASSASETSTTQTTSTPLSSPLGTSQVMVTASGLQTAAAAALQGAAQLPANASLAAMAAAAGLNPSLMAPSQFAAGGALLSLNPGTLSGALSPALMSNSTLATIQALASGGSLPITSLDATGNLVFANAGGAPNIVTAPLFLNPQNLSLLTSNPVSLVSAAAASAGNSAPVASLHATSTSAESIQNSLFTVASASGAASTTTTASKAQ", "experiment": "Oct-1 DNA binding, gel mobility shift assay", "conditions": "100 μM", "experimental": "In these studies, the DNA binding activities of two eukaryotic transcription factors, Oct-1 and ATF-2, were analyzed using a gel mobility shift assay. Purified Oct-1 was inculcated in the absence or presence of 100 μM neomycin B with a ^32 P-labelled 70-nt DNA probe containing an HSV ICPO octamer binding site (Stern and Her, Genes and Development, 5:2555-2566 (1991)). Additionally, the effect of 100 μM neomycin B on the binding of ATF-2 to a 35-nt DNA probe homologous to nucleotides -251 to -232 of the HTLV-1 LTR was analyzed."}}, "note": "Read-outs that look alike come from different tables or passages of the source.", "data": [{"compound": "NC[C@@H]1O[C@H](O[C@H]2[C@@H](O)[C@H](O[C@@H]3[C@@H](O)[C@H](N)C[C@H](N)[C@H]3O[C@H]3O[C@H](CN)[C@@H](O)[C@H](O)[C@H]3N)O[C@@H]2CO)[C@H](N)[C@@H](O)[C@@H]1O", "note": "[neomycin B]", "values": [{"measurement": "self-splicing of Group I introns in vitro", "setting": "[1]", "value": "effectively inhibit"}, {"measurement": "expression of a cytomegalovirus (CMV)-CAT reporter", "setting": "[2]", "value": "did not inhibit"}, {"measurement": "binding of GST-Sex lethal to the tra RNA", "setting": "[3]", "value": "unaffected"}, {"measurement": "activity", "setting": "[4]", "value": "94 to 108", "unit": "%"}, {"measurement": "ability to inhibit Rev binding (inhibitory at any concentration tested)", "setting": "[5]", "value": "significant inhibitory ability"}, {"measurement": "ability to inhibit Rev binding (inhibitory at any concentration tested)", "setting": "[5]; listed as Neomycin B", "value": "the most potent inhibitor"}, {"measurement": "concentration that achieves inhibition of Rev binding", "setting": "[5]; 67-nt RNA probe, neomycin B: complete inhibition", "value": 1, "unit": "µM"}, {"measurement": "inhibiting the binding of Rev to the RRE", "setting": "[5]; Rev/RRE binding inhibition assay, summary of thirteen 2-DOS aminoglycosides", "value": "exceptional inhibitory potential"}, {"measurement": "Rev binding at the lowest protein amounts", "setting": "[6]; 1.3-2 ng Rev", "value": "completely inhibited"}, {"measurement": "RNA binding at increased amount of Rev", "setting": "[6]; 10-20 ng Rev", "value": "restored"}, {"measurement": "binding of Oct-1 to the HSV ICPO octamer binding site", "setting": "[7]", "value": "unaffected"}]}]}
